Three compounds from US20040033482A1, “Device and method for the measurement of forces from living materials” (priority 2000, published 2004) can be followed below.

The test system of the assay is fibroblasts (or smooth muscle cells). The experiment in a line: Measurement of lateral intrinsic forces of a cell layer cultured on an elastically deformable membrane (membrane deflection read by laser). The format is cell-based. The following applies: for change in cell layer tension in dependence on time: FIG. 4, consecutive addition of thrombin (20, 50, 100 U/ml), EDTA (0.1% by weight, 2 min), trypsin (0.2% by weight, 15 min); for tension transmitted to the membrane (intrinsic forces): FIG. 5 and FIG. 6, addition of thrombin, then EDTA, then trypsin. On the procedure: A commercially available PET membrane is adhered to an open end of a cylinder; the other end remains open. During the adhesion process, a metal ring is used to pull uniformly on the membrane, such that the membrane is then stretched so that it is completely flat but not plastically deformed. 400 μl of cell culture medium (DPBS), corresponding to a fill height of a liquid column of about 2 mm, are then applied to the membrane (having a diameter of 16 mm). Due to the culture medium, the membrane is elastically preformed, i.e. deflected, and prepared for the application of living material.
1 ml of a suspension of fibroblasts (or smooth muscle cells), containing a cell count of 5×10^4/ml (or 7×10^4/ml), is then added to the prestretched membrane and the entire device is incubated in an incubator at 37° C. for 4 days for the purpose of culturing the cells. After the culturing, the culture medium is replaced with 400 μl of fresh medium. The mounting, together with membrane and cells cultured on it, which has thus been prepared is inserted into the measuring device and the measurement is carried out using a laser beam as the sensor.
As a result of replication, the cells adhere to the membrane and form a confluent monolayer (or multilayer). In connection with this, the cells secrete, over time, an extracellular matrix (ECM).
As a result of the growth of the cells, and the tensile stress in the cell layer and in the ECM which is connected therewith, and as a result of the fact that the cells and the ECM adhere to the membrane, the membrane experiences a change in tension. As a consequence of this, the deflection of the membrane decreases and raises the fill level of the medium slightly. This change in the deflection of the membrane is determined using a laser.
In order to stimulate the cell layer(s), thrombin is added to the medium to give final concentrations of 0-100 U/ml. 20 U/ml of culture medium are added first of all. The thrombin binds to the thrombin receptors and induces cell contraction. The membrane rises further to a slight extent. In this connection, the cells contract with a time constant which is typical. After a theoretically infinite measuring time, the measured change in the deflection of the membrane reaches a typical saturation value. Further quantities of thrombin are added consecutively to the cell culture medium above the membrane in increasing order, i.e. initially 50 U/ml and then 100 U/ml. The changes in the deflection of the membrane are measured correspondingly.
In each case, the cells are permitted to develop the contraction until, in the simplest case by way of fitting an exponential function, there is no need to await the achievement of the final value but, instead, the final measurement of the achievable concentration can be approximated. This decreases the measuring time. Both the characteristic onset time for the thrombin-mediated contraction effect and the maximum contraction which can be achieved in association with this contraction can be calculated from the exponential function which has been fitted.
The cells are detached from the ECM by adding EDTA (0.1% by weight) for a reaction time of 2 min. The same volumes as the quantities of liquid which are added in this connection are simultaneously removed once again at another site in the measuring chamber. The cells become detached with a typical time constant. As a consequence of this, the tension in the membrane changes since the forces acting on the membrane as a result of the cell contraction are no longer present; this means that the membrane becomes further deflected once again. In this case, too, an exponential function is approximated and the time constant and the final value of the tension recovery can be calculated approximately.
The ECM which is adhering to the membrane still maintains a part of the tension which arose during the cell growth. Adding trypsin (0.2% by weight) for a reaction time of 15 min. degrades the ECM. […]

On to `O=C(O)CN(CCN(CC(=O)O)CC(=O)O)CC(=O)O` [EDTA], for which the “change in cell layer tension in dependence on time” value (from here on “change in cell layer tension”) is given as “intrinsic forces which are measured decrease” and the “tension transmitted to the membrane (intrinsic forces)” value (“tension transmitted to the membrane” for short) is recorded as “membrane relaxing”.

With thrombin, the “change in cell layer tension” value is listed as “contraction of the living material can be observed to increase as the concentration of thrombin increases” and the “tension transmitted to the membrane” value is on record as “increase markedly”.

As for trypsin, the “change in cell layer tension” value is given as “also declines” and the “tension transmitted to the membrane” value was “tension in the extracellular matrix to subside”.
